Format in all cases: in vivo, white mice of Swiss strain
In experiment [1] the test system is doxorubicin-induced skin ulcers. Briefly: doxorubicin-induced skin ulcers in white mice: ulcer area and macroscopic state. The source says: (§1) Research indicators during burn treatment including: (A) macromorphological index, (B) quantification of hydroxyproline concentration in damaged tissue, and (C) micromorphic index; wherein: • (A) macromorphological index: • Injury status at the burn: swelling, heat, redness, edema observed by eye and recorded by digital camera; • Measure the burn area at 7, 14, and 21 days after causing the burn.
Evaluation of the scar healing effect of the composition 100 and composition 200 in experiments. The model was based on previous studies of doxorubicin-induced skin ulcers in white mice of Swiss strain, both breeds, healthy, weight 30-35 g. White mice of both breeds of both breeds were randomly divided into 5 lots, each batch of 10 animals as follows: • Lot 1: Intradermal injection of physiological saline, no applying DMSO/composition 100/composition 200; • Lot 2: Intradermal injection of doxorubicin 1 mg/0.5 ml, to heal the ulcer naturally; • Lot 3: Intradermal injection of doxorubicin 1 mg/0.5 ml, for ulcer progression for 7 days. Then, drop 0.1 ml of DMSO on the ulcerated area, 2 times a day, use within 21 days; • Lot 4: Intradermal injection of doxorubicin 1 mg/0.5 ml, for ulcer progression for 7 days. Then, apply the composition 100 with dose of 0.1 ml/ulcer/time, 2 times/day, used for 21 days; and • Lot 5: Intradermal injection of doxorubicin 1 mg/0.5 ml, for ulcer progression for 7 days. Then, apply the composition 200 with dose of 0.1 ml/ulcer/time, with a frequency of twice daily, and used for 21 days.
(§2) Research indicators during scar healing including: (A) macromorphological index, (B) quantification of hydroxyproline concentration in damaged tissue, and (C) micromorphic index; all was samed as the burn treatment research experimental.

For experiment [2] the test system is unchanged. Briefly: micromorphic index of the skin at the ulcer. As to conditions: mice.
Text: as §1
(§3) Evaluation of the scar healing effect of the composition 100 and composition 200 in experiments. The model was based on previous studies of doxorubicin-induced skin ulcers in white mice of Swiss strain, both breeds, healthy, weight 30-35 g. White mice of both breeds of both breeds were randomly divided into 5 lots, each batch of 10 animals as follows: • Lot 1: Intradermal injection of physiological saline, no applying DMSO/composition 100/composition 200; • Lot 2: Intradermal injection of doxorubicin 1 mg/0.5 ml, to heal the ulcer naturally; • Lot 3: Intradermal injection of doxorubicin 1 mg/0.5 ml, for ulcer progression for 7 days. […]
as §2

The test system is the same in experiment [3]. Briefly: hydroxyproline concentration in skin of mice with doxorubicin-induced ulcers. As to conditions: doxorubicin-induced skin ulcer model; at the end of the study (21 days of application).
Text: as §1, §3, §2

Consider `C[S+](C)[O-]` [DMSO, dimethyl sulfoxide], for which the “Area of skin ulcers After 7 days (x ± SD)” value in experiment [1] (0.1 ml on ulcer 2 times a day, after 7 days) amounted to 50.13 ± 12.55 mm^2. Moreover, in experiment [1] (0.1 ml on ulcer 2 times a day, after 14 days, median), the “Area of skin ulcers After 14 days Median (quartile)” value is given as 7.13 mm^2. Further, the “Area of skin ulcers After 21 days Median (quartile)” value in experiment [1] (0.1 ml on ulcer 2 times a day, after 21 days, median) was 0 mm^2. Moreover, the “macroscopic state of the ulcerated skin area” value in experiment [1] (at the end of the study) is “significantly reduced and almost completely healed skin ulcers”. The “Area of skin ulcers Before applied (x ± SD)” value in experiment [1] (before applied (baseline)) turned out to be 75.71 ± 14.02 mm^2. Also, in experiment [2], the “micromorphic images of the skin at the ulcer” value was “the skin has regenerated to form the epidermis, no formation of skin-dependent glands, less blood vessels”. Also, the “Hydroxyproline concentrations in mouse skin (x ± SD)” value in experiment [3] was 15.04 ± 2.35 mg/g skin.
